From ChEMBL document CHEMBL1201862, “PubChem BioAssay data set” (2004)
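Exposure lasted 48 hours, with cells grown in 96-well plates and compounds tested at five concentrations. GI50: concentration for 50% inhibition of growth.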 The source made the active and inactive calls. Cut-off read from the data, not from the text of the source: active = GI50 up to about 1.1 µM and inactive = higher.

Legend:
Experiment in all cases: NCI tumour cell line growth inhibition, 48 h
A549 = tested on: A549
ACHN = tested on: ACHN
DMS-114 = tested on: DMS-114
HCT-116 = tested on: HCT-116
HT-29 = tested on: HT-29
K562 = tested on: K562
LOX IMVI = tested on: LOX IMVI
M14 = tested on: M14
MOLT-4 = tested on: MOLT-4
NCI-H460 = tested on: NCI-H460
OVCAR-4 = tested on: OVCAR-4
SF-539 = tested on: SF-539
SK-MEL-2 = tested on: SK-MEL-2
SK-MEL-5 = tested on: SK-MEL-5
SR = tested on: SR
UO-31 = tested on: UO-31
RPMI-8226 = tested on: RPMI-8226
BT-549 = tested on: BT-549
MCF7 = tested on: MCF7
T47D = tested on: T47D

Row | SMILES | GI50 (A549) | GI50 (ACHN) | GI50 (DMS-114) | GI50 (HCT-116) | GI50 (HT-29) | GI50 (K562) | GI50 (LOX IMVI) | GI50 (M14) | GI50 (MOLT-4) | GI50 (NCI-H460) | GI50 (OVCAR-4) | GI50 (SF-539) | GI50 (SK-MEL-2) | GI50 (SK-MEL-5) | GI50 (SR) | GI50 (UO-31) | GI50 (RPMI-8226) | GI50 (BT-549) | GI50 (MCF7) | GI50 (T47D)
1 | C=C(C)C1CC=C(C(=O)O)CC1 (stereo unspecified) | 1210 µM (inactive) | 1020 µM (inactive) | 1360 µM (inactive) | 793 µM (inactive) | 1450 µM (inactive) | 1200 µM (inactive) | 1220 µM (inactive) | 1750 µM (inactive) | 2330 µM (inactive) | 1360 µM (inactive) | 1760 µM (inactive) | 1070 µM (inactive) | 1170 µM (inactive) | 752 µM (inactive) | 1160 µM (inactive) | 1190 µM (inactive) |  |  |  | 
2 | CC1=CC(=O)NP(=O)(Oc2ccc(C)cc2)N1 (stereo unspecified) |  | > 100 µM (inactive) | > 100 µM (inactive) | > 100 µM (inactive) | > 100 µM (inactive) | > 100 µM (inactive) | > 100 µM (inactive) | > 100 µM (inactive) | > 100 µM (inactive) | > 100 µM (inactive) | > 100 µM (inactive) | > 100 µM (inactive) | > 100 µM (inactive) | > 100 µM (inactive) | > 100 µM (inactive) | > 100 µM (inactive) | > 100 µM (inactive) |  |  | 
3 | CCCOCN1COCN/C1=N\C#N | 42.3 µM (inactive) | 52.4 µM (inactive) | 22 µM (inactive) | 84.1 µM (inactive) | 48.2 µM (inactive) | > 100 µM (inactive) | 24.5 µM (inactive) | > 100 µM (inactive) | > 100 µM (inactive) | > 100 µM (inactive) | 32.1 µM (inactive) | > 100 µM (inactive) | > 100 µM (inactive) | > 100 µM (inactive) |  | > 100 µM (inactive) | 69.7 µM (inactive) |  |  | 
4 | COc1ccccc1/N=N/c1c(-c2ccccc2)nn(C(=O)CC(=O)Nc2cccc(C)c2)c1-c1ccccc1 | 26.5 µM (inactive) | 28.4 µM (inactive) | 14.7 µM (inactive) | 28 µM (inactive) | 16.4 µM (inactive) | 15.7 µM (inactive) | 27.5 µM (inactive) | 14.7 µM (inactive) | 10.7 µM (inactive) | 27.2 µM (inactive) | 28.6 µM (inactive) | 30 µM (inactive) |  | 18.7 µM (inactive) |  | 19.7 µM (inactive) |  |  |  | 
5 | NC(=S)N/N=C/c1cn(CCCl)c2ccccc12 | 34.9 µM (inactive) |  | 21.9 µM (inactive) | 27.4 µM (inactive) | 23.9 µM (inactive) | 8.05 µM (inactive) | 25 µM (inactive) | 56.4 µM (inactive) | 14.2 µM (inactive) |  |  |  | 72.1 µM (inactive) | 15.9 µM (inactive) | 11 µM (inactive) | 16.9 µM (inactive) | 14.2 µM (inactive) |  |  | 
6 | O=C1C2=C(CCCCC2)C2CCCCC12O (stereo unspecified) | > 100 µM (inactive) | > 100 µM (inactive) | > 100 µM (inactive) | > 100 µM (inactive) | > 100 µM (inactive) | > 100 µM (inactive) | > 100 µM (inactive) | > 100 µM (inactive) | > 100 µM (inactive) | > 100 µM (inactive) |  | > 100 µM (inactive) | > 100 µM (inactive) |  | > 100 µM (inactive) | > 100 µM (inactive) | > 100 µM (inactive) |  |  | 
7 | COc1ccc2c(c1OC)OC[C@@H](C1=CC(=O)C=C(O)C1=O)C2 | 18.2 µM (inactive) | 4.8 µM (inactive) |  | 4.7 µM (inactive) | 17.7 µM (inactive) | 2.2 µM (inactive) | 3.32 µM (inactive) | 12.4 µM (inactive) | 0.838 µM (active) | 11.8 µM (inactive) | 5.53 µM (inactive) | 13.5 µM (inactive) | 15.3 µM (inactive) | 12.5 µM (inactive) | 6.31 µM (inactive) | 12.6 µM (inactive) | 1.91 µM (inactive) | 12.8 µM (inactive) | 9.91 µM (inactive) | 4.25 µM (inactive)
8 | CCOC(=O)[C-]([N+]#N)[Si](C)(C)C | > 100 µM (inactive) | > 100 µM (inactive) | > 100 µM (inactive) | 53.1 µM (inactive) | > 100 µM (inactive) |  | 85.9 µM (inactive) |  |  | > 100 µM (inactive) | > 100 µM (inactive) | > 100 µM (inactive) | > 100 µM (inactive) | > 100 µM (inactive) |  |  |  |  |  | 
9 | NC(=O)C(=O)N/N=C1\C(=O)N(c2ccc(Cl)cc2Cl)C(=O)C1C(=O)Nc1ccc(Cl)cc1Cl (stereo unspecified) | > 100 µM (inactive) | > 100 µM (inactive) | > 100 µM (inactive) | > 100 µM (inactive) | > 100 µM (inactive) | > 100 µM (inactive) | > 100 µM (inactive) | > 100 µM (inactive) | > 100 µM (inactive) | > 100 µM (inactive) |  | > 100 µM (inactive) | > 100 µM (inactive) | > 100 µM (inactive) | > 100 µM (inactive) | > 100 µM (inactive) | > 100 µM (inactive) |  |  | 
10 | c1ccc(COCC2OC3c4ccccc4COC3C2OCc2ccccc2)cc1 (stereo unspecified) | > 100 µM (inactive) | > 100 µM (inactive) | 49.5 µM (inactive) | 71.3 µM (inactive) | 99.1 µM (inactive) | 57.5 µM (inactive) |  | > 100 µM (inactive) | 48.8 µM (inactive) | 71.6 µM (inactive) | > 100 µM (inactive) | > 100 µM (inactive) | > 100 µM (inactive) | 70.6 µM (inactive) | 57.8 µM (inactive) | > 100 µM (inactive) | 63 µM (inactive) |  |  | 
11 | COC(=O)C1=C(C(=O)OC)C2C(C)=CC(C)=CN2C(C#N)=C(SC)S1 (stereo unspecified) | 37.2 µM (inactive) | 28.4 µM (inactive) | 22.6 µM (inactive) | 15 µM (inactive) | 21.1 µM (inactive) | 20.7 µM (inactive) | 17.9 µM (inactive) | 18 µM (inactive) | 23.6 µM (inactive) | > 100 µM (inactive) |  | 19.2 µM (inactive) | 23.1 µM (inactive) | 14.6 µM (inactive) | 19 µM (inactive) | 12.7 µM (inactive) | 21.6 µM (inactive) |  |  | 
12 | O=C(COc1ccc(Cl)cc1)N1CCN(C(=O)COc2ccc(Cl)cc2)c2ccccc21 | 33.5 µM (inactive) | 33.6 µM (inactive) | 29.5 µM (inactive) | 30.4 µM (inactive) | 50.5 µM (inactive) | 37.6 µM (inactive) | 91.2 µM (inactive) |  | 19.2 µM (inactive) | 60.7 µM (inactive) |  | > 100 µM (inactive) | 28.1 µM (inactive) |  |  | 7.23 µM (inactive) | 20.6 µM (inactive) |  |  | 
13 | CC(=O)Nc1c(Nc2ccccc2)[nH]c(C)nc1=S | > 100 µM (inactive) | > 100 µM (inactive) | > 100 µM (inactive) |  |  | > 100 µM (inactive) | > 100 µM (inactive) | > 100 µM (inactive) | > 100 µM (inactive) | > 100 µM (inactive) | > 100 µM (inactive) |  | > 100 µM (inactive) | > 100 µM (inactive) |  | > 100 µM (inactive) | > 100 µM (inactive) |  |  | 
14 | O=C(C=P(c1ccccc1)(c1ccccc1)c1ccccc1)CC(=S)CC(=O)C=P(c1ccccc1)(c1ccccc1)c1ccccc1 | 4.17 µM (inactive) | 7.08 µM (inactive) | 3.41 µM (inactive) | 2.86 µM (inactive) | 4.14 µM (inactive) | 2.47 µM (inactive) | 3.53 µM (inactive) | 4.12 µM (inactive) |  | 4.36 µM (inactive) | 7.5 µM (inactive) | 4.09 µM (inactive) |  | 2.81 µM (inactive) |  | 29.3 µM (inactive) | 2.24 µM (inactive) |  |  | 
15 | CC(C)OC(=O)C1Cc2c([nH]c3ccccc23)C(c2ccccc2)N1 (stereo unspecified) | 66.1 µM (inactive) | 93.8 µM (inactive) | 52.4 µM (inactive) | 62.4 µM (inactive) | 98.4 µM (inactive) | 50.1 µM (inactive) | > 100 µM (inactive) | 81.7 µM (inactive) | 42.5 µM (inactive) | > 100 µM (inactive) | 79.8 µM (inactive) | > 100 µM (inactive) | 18.2 µM (inactive) | 91.2 µM (inactive) |  | 18 µM (inactive) | 84.9 µM (inactive) |  |  | 
16 | C[N+](C)(C)CC(=O)N/N=C(\CCC(=O)NCCc1ccccc1)CC(=O)c1ccccc1 | > 100 µM (inactive) | > 100 µM (inactive) | > 100 µM (inactive) | > 100 µM (inactive) | > 100 µM (inactive) | > 100 µM (inactive) | > 100 µM (inactive) | > 100 µM (inactive) | > 100 µM (inactive) | > 100 µM (inactive) | > 100 µM (inactive) | > 100 µM (inactive) | > 100 µM (inactive) | > 100 µM (inactive) |  | > 100 µM (inactive) | > 100 µM (inactive) |  |  | 
17 | O=C1C2C3C=C4c5ccccc5N(c5ccccc5)C4(C2C(=O)N1c1ccc(Cl)cc1)[C@H]1C(=O)N(c2ccc(Cl)cc2)C(=O)[C@@H]31 (stereo partly specified) | > 100 µM (inactive) |  | > 100 µM (inactive) | 78.3 µM (inactive) | > 100 µM (inactive) | > 100 µM (inactive) | > 100 µM (inactive) | 35.7 µM (inactive) | > 100 µM (inactive) | > 100 µM (inactive) | > 100 µM (inactive) | > 100 µM (inactive) | > 100 µM (inactive) | > 100 µM (inactive) | > 100 µM (inactive) | > 100 µM (inactive) | 22.2 µM (inactive) |  |  | 
18 | COc1cc(CCc2cccnc2)cc(OC)c1OC | > 100 µM (inactive) | > 100 µM (inactive) | 77.4 µM (inactive) | > 100 µM (inactive) | > 100 µM (inactive) | > 100 µM (inactive) | > 100 µM (inactive) | > 100 µM (inactive) | > 100 µM (inactive) | > 100 µM (inactive) | > 100 µM (inactive) | > 100 µM (inactive) |  | > 100 µM (inactive) |  | > 100 µM (inactive) | > 100 µM (inactive) |  |  | 
